11 compounds from PubChem BioAssay AID1695 (PCMD, 2009) can be followed below.

Each structure is given as a SMILES string. Calls of active or inactive are those of the source. No rule for the calls is given here.

This assay deals with dTDP-4-dehydrorhamnose reductase (Mycobacterium tuberculosis (strain ATCC 25618 / H37Rv)) + dTDP-4-dehydrorhamnose 3,5-epimerase (Mycobacterium tuberculosis (strain ATCC 25618 / H37Rv)) (UniProt P9WH09+P9WH11). In words: dTDP dehydrorhamnose epimerase and reductase, coupled enzyme assay, Mycobacterium tuberculosis, IC50 (AID 1695). To be noted: coupled RmlC/RmlD enzyme assay.
Chain of dTDP-4-dehydrorhamnose reductase (Mycobacterium tuberculosis (strain ATCC 25618 / H37Rv)) + dTDP-4-dehydrorhamnose 3,5-epimerase (Mycobacterium tuberculosis (strain ATCC 25618 / H37Rv)) (P9WH09 whole entry, looked up): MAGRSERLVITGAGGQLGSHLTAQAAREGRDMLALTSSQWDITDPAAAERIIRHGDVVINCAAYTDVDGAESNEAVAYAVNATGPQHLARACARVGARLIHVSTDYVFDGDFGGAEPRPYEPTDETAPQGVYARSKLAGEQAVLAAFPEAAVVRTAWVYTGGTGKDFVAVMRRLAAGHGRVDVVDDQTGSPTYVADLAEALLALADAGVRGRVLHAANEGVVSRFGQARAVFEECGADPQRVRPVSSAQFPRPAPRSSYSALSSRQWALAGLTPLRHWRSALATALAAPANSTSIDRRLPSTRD
Chain of dTDP-4-dehydrorhamnose reductase (Mycobacterium tuberculosis (strain ATCC 25618 / H37Rv)) + dTDP-4-dehydrorhamnose 3,5-epimerase (Mycobacterium tuberculosis (strain ATCC 25618 / H37Rv)) (P9WH11 whole entry, looked up): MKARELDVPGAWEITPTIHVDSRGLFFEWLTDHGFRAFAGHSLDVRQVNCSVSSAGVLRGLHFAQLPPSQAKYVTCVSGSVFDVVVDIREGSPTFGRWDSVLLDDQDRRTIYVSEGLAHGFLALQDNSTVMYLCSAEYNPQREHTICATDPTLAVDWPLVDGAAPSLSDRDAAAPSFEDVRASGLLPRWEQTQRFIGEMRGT

For `COc1ccc(OC)c(/C=N/NC(=O)CC2C(=O)NN=C2C)c1` (stereo unspecified), the IC50 result was “inactive”.
Consider `CC1=C(C#N)C(c2cccnc2)C2=C(CC(C)(C)CC2=O)N1` (stereo unspecified), for which the IC50 entry is “inactive”.
The result for `CCOC(=O)C1=C(CSc2nc(-c3ccccc3)ccc2C#N)OC(N)=C(C#N)C1c1cccnc1` (stereo unspecified) reads “inactive”; that for `COc1ccccc1N=c1oc2cc(O)ccc2cc1C(N)=O`, “inactive”; that for `COC(=O)/C(=C/Nc1cccc2ccccc12)[N+](=O)[O-]`, “inactive”.
In the case of `O=C1CCC(=O)N1c1nc2nc(-c3ccccc3)cc(-c3ccccc3)n2n1`, the IC50 result is “inactive”.
For `CC1=C(C#N)C(c2cccnc2)C2=C(CCCC2=O)N1` (stereo unspecified), the IC50 result was “inactive”.
The result for `C=CCOC(=O)C1=C(C)NC(SCC(=O)NC(=O)OCC)=C(C#N)C1c1cccnc1` (stereo unspecified) reads “inactive”; that for `COC(=O)C1=CNC=C(C(=O)OC)C1c1cccc(OC)c1`, “inactive”.
Regarding `CCCCCCc1cc2cc(-c3nnc(-c4ccccc4OC)o3)c(=O)oc2cc1O`, the IC50 entry is “inactive”.
Take `CC1=CC(c2ccccc2)n2nc(NS(=O)(=O)c3ccc(C)cc3)nc2N1` (stereo unspecified): the IC50 entry was “inactive”.
